# Laboratory results reported in patent US20120016009A1, “Optimized Methods For Delivery Of DSRNA Targeting The PCSK9 Gene” (priority 2008, published 2012).
# In the oligonucleotide strings, read from the 5' end, every base follows the letter of its sugar. An asterisk marks phosphorothioate; unmarked linkages are phosphodiester. Other units and linkages are bracketed, terminal groups are in braces. A string of capitals states the bases alone. [Ab] = 3'-terminal abasic nucleotide; e = 2'-O-(2-methoxyethyl) (MOE); d = 2'-deoxy (DNA); m = 2'-O-methyl; r = 2'-OH (RNA); {P} = phosphate; f = 2'-fluoro
# System: PCSK9 mRNA
# Experiment: In vitro screening of modified dsRNAs targeted to PCSK9 (Table 2b; cell type not given)
# Assay type: cell-based
# Details: 30 nM siRNA
# Experimental: For transfection with siRNA, HuH7, HepG2, or HeLa cells were seeded at a density of 2.0×10^4 cells/well in 96-well plates and transfected directly. Transfection of siRNA (30 nM for single dose screen) was carried out with lipofectamine 2000 (Invitrogen GmbH, Karlsruhe, Germany, cat. No. 11668-019) as described by the manufacturer.
# 24 hours after transfection HuH7 and HepG2 cells were lysed and PCSK9 mRNA levels were quantified with the Quantigene Explore Kit (Genosprectra, Dumbarton Circle Fremont, USA, cat. No. QG-000-02) according to the protocol. PCSK9 mRNA levels were normalized to GAP-DH mRNA. For each siRNA eight individual datapoints were collected. siRNA duplexes unrelated to PCSK9 gene were used as control. The activity of a given PCSK9 specific siRNA duplex was expressed as percent PCSK9 mRNA concentration in treated cells relative to PCSK9 mRNA concentration in cells treated with the control siRNA duplex.
# Tables 1b and 2b (and FIG. 6A) summarize the results and provide examples of in vitro screens in different cell lines at different doses. Silencing of PCSK9 transcript was expressed as percentage of remaining transcript at a given dose.
row,Substance,Remaining mRNA in % of controls at siRNA conc. of 30 nM
1,"AD-12399: modified dsRNA, SEQ ID NO:1493/1494 (chain 1 GCCUGGNAGUUUAUUCGGAATT; chain 2 {P}-fUfUfCfCrGrArAfUrArArAfCfUfCfCrArGrGfC*fC*fU; chain 1: chemistry not given here; further chemistry not fully specified)",13%
2,"AD-12357: modified dsRNA, SEQ ID NO:1411/1412 (chain 1 GCCUGGAGUUUAUUCGGAA; chain 2 rUrUrCrCrGmAmArUrAmAmArCrUrCrCrAmGmGmC; chain 1: sugars from the 5' end rererererererererer, all phosphodiester, methylation of C and T or U not given here)",56%
3,"AD-12064: modified dsRNA, SEQ ID NO:1363/1364 (chain 1 GCCUGGNAGUUUAUUCGGAATT; chain 2 rUrUrCrCrGrArAmUrArArArCrUrCmCrArGrGrCdT*dT; chain 1: chemistry not given here; sense strand contains an undefined nucleotide n)",15%
4,"AD-12345: modified dsRNA, SEQ ID NO:1389/1390 (chain 1 fGmCfCmUfGmGfAmGfUmUfUmAfUmUfCmGfGmAfAdT*dT; chain 2 rUrUrCrCrGrArArUrArArArCrUrCrCrArGrGrC*mC*mU)",12%
5,"AD-12377: modified dsRNA, SEQ ID NO:1449/1450 (chain 1 rGfCfCfUrGrGrArGfUfUfUrAfUfUfCrGrGrArAdT*dT; chain 2 mUrUmCrCrGrArAmUrArArArCrUmCmCrArGrGrCdT*dT)",88%
6,"AD-12375: modified dsRNA, SEQ ID NO:1447/1448 (chain 1 rGfCfCfUrGrGrArGfUfUfUrAfUfUfCrGrGrArAdT*dT; chain 2 rUrUrCrCrGrArArUrArArArCrUrCrCrArGrGrCdT*dT)",16%
7,"AD-12360: modified dsRNA, SEQ ID NO:1417/1418 (chain 1 GCCUGGAGUUUAUUCGGAA; chain 2 rUrUrCrCrGrArArUrArArArCrUrCrCrArGrGrC*mC*mU; chain 1: sugars from the 5' end rererererererererer, all phosphodiester, methylation of C and T or U not given here)",15%
8,"AD-12394: modified dsRNA, SEQ ID NO:1483/1484 (chain 1 rGfCfCfUrGrGrArGrGfUfUfUrAfUfUfCrGrGrArA; chain 2 mUrUmCrCrGrArAmUrArArArCrUmCmCrArGrGrCdT*dT)",75%
9,"AD-12348: modified dsRNA, SEQ ID NO:1395/1396 (chain 1 rGmCmCmUrGrGrArGmUmUmUrAmUmUmCrGrGrArAdT*dT; chain 2 {P}-mUfUmCfCmGfAmAfUmAfAmAfCmUfCmCfAmGfGmCdT*dT)",8%
10,"AD-12041: modified dsRNA, SEQ ID NO:1317/1318 (chain 1 rGmCmCmUrGrGrArGmUmUmUrAmUmUmCrGrGrArAdT*dT; chain 2 rUrUrCmCrGrArArUrArArArCrUrCrCrArGrGrCdT*dT)",11%
11,"AD-12374: modified dsRNA, SEQ ID NO:1445/1446 (chain 1 rGfCfCfUrGrGrArGfUfUfUrAfUfUfCrGrGrArAdT*dT; chain 2 fUfUfCfCrGrArAfUrArArAfCfUfCfCrArGrGfCdT*dT)",9%
12,"AD-12388: modified dsRNA, SEQ ID NO:1471/1472 (chain 1 rGfCfCfUrGrGrArGrGfUfUfUrAfUfUfCrGrGrArA; chain 2 {P}-mUfUmCfCmGfAmAfUmAfAmAfCmUfCmCfAmGfGmC)",19%
13,"AD-12342: modified dsRNA, SEQ ID NO:1383/1384 (chain 1 fGmCfCmUfGmGfAmGfUmUfUmAfUmUfCmGfGmAfAdT*dT; chain 2 rUrUrCrCrGrArAmUrArArArCrUrCmCrArGrGrCdT*dT)",13%
14,"AD-12050: modified dsRNA, SEQ ID NO:1335/1336 (chain 1 rGmCmCmUrGrGrArGmUmUmUrAmUmUmCrGrGrArAdTdT[Ab]; chain 2 rUrUrCrCrGrArArUrArArArCrUrCrCrArGrGrCdTdT[Ab])",16%
15,"AD-12048: modified dsRNA, SEQ ID NO:1331/1332 (chain 1 rGmCmCmUrGrGrArGmUmUmUrAmUmUmCrGrGrArArArA; chain 2 rUrUrUrUrCrCrGrArArUrArArArCrUrCrCrArGrGrC*mC*mU)",43%
16,"AD-12069: modified dsRNA, SEQ ID NO:1373/1374 (chain 1 rGmCrCmUrGmGrAmGrUmUrUmArUmUrCmGrGmArA; chain 2 rUrUrCrCrGrArArUrArArArCrUrCrCrArGrGrC*mC*mU)",13%
17,"AD-12060: modified dsRNA, SEQ ID NO:1355/1356 (chain 1 rGmCrCmUrGmGrAmGrUmUrUmArUmUrCmGrGmArA; chain 2 rUrUrCrCrGmAmArUrAmAmArCrUrCrCrAmGmGmC)",10%
18,"AD-12366: modified dsRNA, SEQ ID NO:1429/1430 (chain 1 GCCUGGAGUUUAUUCGGAATT; chain 2 rUrUrCrCrGrArArUrArArArCrUrCrCrArGrGrCdT*dT; chain 1: sugars from the 5' end rerererererererererdd, linkages o19 s1 (s phosphorothioate, o phosphodiester), methylation of C and T or U not given here)",23%
19,"AD-12049: modified dsRNA, SEQ ID NO:1333/1334 (chain 1 rGmCmCmUrGrGrArGmUmUmUrAmUmUmCrGrGrArArArArG; chain 2 rCrUrUrUrUrCrCrGrArArUrArArArCrUrCrCrArGrGrC*mC*mU)",34%
20,"AD-12055: modified dsRNA, SEQ ID NO:1345/1346 (chain 1 rGmCmCmUrGrGrArGmUmUmUrAmUmUmCrGrGrArAdT*dT; chain 2 rUrUrCrCrGrArArUrArArArCrUrCrCrArGrGrC*mC*mU)",13%
21,"AD-12051: modified dsRNA, SEQ ID NO:1337/1338 (chain 1 rGmCmCmUrGrGrArGmUmUmUrAmUmUmCrGrGrArArAdTdT[Ab]; chain 2 rUrUrUrCrCrGrArAmUrArArArCrUrCrCrArGrGrCdTdT[Ab])",31%
22,"AD-12058: modified dsRNA, SEQ ID NO:1351/1352 (chain 1 rGmCrCmUrGmGrAmGrUmUrUmArUmUrCmGrGmArA; chain 2 rUrUrCrCrGrArAmUrArArArCrUrCmCrArGrGrCdT*dT)",9%
23,"AD-12042: modified dsRNA, SEQ ID NO:1319/1320 (chain 1 rGrCrCrUrGrGrArGrUrUrUrArUrUrCrGrGrArAdT*dT; chain 2 mUrUrCrCrGrArArUrArArArCrUrCrCrArGrGrCdT*dT)",12%
24,"AD-12373: modified dsRNA, SEQ ID NO:1443/1444 (chain 1 GCCUGGAGUUUAUUCGGAATT; chain 2 rUrUrCrCrGrArArUrArArArCrUrCrCrArGrGrCdT*dT; chain 1: DNA at T, 2'-MOE at CU, RNA at AG, linkages o19 s1 (s phosphorothioate, o phosphodiester), methylation of C and T or U not given here)",55%
25,"AD-12372: modified dsRNA, SEQ ID NO:1441/1442 (chain 1 GCCUGGAGUUUAUUCGGAATT; chain 2 {P}-mUfUmCfCmGfAmAfUmAfAmAfCmUfCmCfAmGfGmC*fC*mU; chain 1: DNA at T, 2'-MOE at CU, RNA at AG, linkages o19 s1 (s phosphorothioate, o phosphodiester), methylation of C and T or U not given here)",60%
26,"AD-12344: modified dsRNA, SEQ ID NO:1387/1388 (chain 1 fGmCfCmUfGmGfAmGfUmUfUmAfUmUfCmGfGmAfAdT*dT; chain 2 rUrUrCrCrGrArArUrArArArCrUrCrCrArGrGrCdT*dT)",9%
27,"AD-12402: modified dsRNA, SEQ ID NO:1499/1500 (chain 1 rGmCmCmUrGrGrArGmUmUmUrAmUmUmCrGrGrArA; chain 2 {P}-fUfUfCfCrGrArAfUrArArAfCfUfCfCrArGrGfC*fC*fU)",14%
28,"AD-12370: modified dsRNA, SEQ ID NO:1437/1438 (chain 1 GCCUGGAGUUUAUUCGGAATT; chain 2 {P}-fUfUfCfCrGrArAfUrArArAfCfUfCfCrArGrGfCdT*dT; chain 1: DNA at T, 2'-MOE at CU, RNA at AG, linkages o19 s1 (s phosphorothioate, o phosphodiester), methylation of C not given here)",68%
29,"AD-12398: modified dsRNA, SEQ ID NO:1491/1492 (chain 1 fGmCfCmUfGmGfAmGfUmUfUmAfUmUfCmGfGmAfAdT*dT; chain 2 {P}-fUfUfCfCrGrArAfUrArArAfCfUfCfCrArGrGfC*fC*fU)",11%
